One experiment concerns Arabidopsis seeds. Briefly: Seed germination experiment on Arabidopsis. The conditions noted are these: for Germination potential/% (48 h): control 45.31 ± 6.63; for Ultimate germination rate/%: control 88.32 ± 1.15. Format: in vivo, Arabidopsis thaliana L. Columbia, Col-0 ecotype. The method, then: (§1) The seeds of Arabidopsis wild type (Arabidopsis thaliana L. Columbia, Col-0 ecotype) were provided by the lab of plant quality & safety biology in China Jiliang university. The commercial tomato seeds (Solanum lycopersicum CV. Zhefen 202) were provided by Zhejiang Academy of Agricultural Sciences.
(§2) The 4-(Phenylethynyl) benzoic acid solutions were prepared as follows: 22.9 mg 4-(Phenylethynyl) benzoic acid was weighted and dissolved in 1 mL DMSO to make the 100 mM 4-(Phenylethynyl) benzoic acid mother solution. The working solutions applied were prepared by diluting the 4-(phenylethynyl) benzoic acid mother solution with water. For example, the 4-(Phenylethynyl) benzoic acid treatment solutions at the concentrations of 1 μM, 10 μM, and 50 μM were prepared by diluting 1 μL of the 100 mM 4-(phenylethynyl) benzoic acid mother solution to 100 mL, 10 mL, or 2 mL with water. DMSO was supplemented to a final concentration of 0.05% (V:V).
(§3) 0.05% DMSO water solution then used as a control solution.
Arabidopsis seeds were soaked in 4-(Phenylethynyl) benzoic acid treatment solutions at the concentrations of 1 μM, 10 μM, and 50 μM for 3 days under dark at 4° C., respectively. Seeds soaked in the 0.05% DMSO water solution were used as control. On the fourth day, Seeds were transformed to light at 25° C. in 2-cm-diameter Petri dishes with two layers of filter papers. Different concentrations of 4-(Phenylethynyl) benzoic acid treatment solutions were added as germination liquids. 0.05% DMSO water solution was used as control. 30-50 seeds were placed on the moist filter paper in a Petri dish. There were three replicates for each treatment. After germination for 30 h, 42 h, 48 h, and 66 h in a growth chamber (25° C.), the germination rate (the proportion of the total number of the seeds germinated corresponding to each time point after the start of the germination experiment to the total number of seeds to be tested) was calculated, respectively. The germination rate at 48 h was adopted as the germination potential (the proportion of the total number of the seeds germinated corresponding to 48 h after the start of the germination experiment to the total number of seeds to be tested).

A further experiment has as its system tomato seeds. Briefly: Seed germination experiment on tomato. The format is in vivo, Solanum lycopersicum CV. Zhefen 202. The conditions noted are these: 50 μM. The method, then:
as §1, §2, §3
For tomato, 80 seeds were sowed on two layers of filter papers in a 6-cm-diameter Petri dish with germination liquids. 4-(Phenylethynyl) benzoic acid treatment solution at the concentration of 50 μM and 0.05% DMSO water solution (Control) were used as the germination liquids. There were three replicates for each treatment. After germination for 24 h, 36 h, 48 h, 60 h, 72 h, 84 h in a growth chamber (25° C.), the germination rate (the proportion of the total number of the seeds germinated corresponding to each time point after the start of the germination experiment to the total number of seeds to be tested) was calculated, respectively. The germination rate at 48 h was adopted as the germination potential (the proportion of the total number of the seeds germinated corresponding to 48 h after the start of the germination experiment to the total number of seeds to be tested).

The test system of the next experiment is rice radicle. Briefly: Rice radicle elongation. The format is in vivo, Oryza sativa L. Datian Nip. How it is done:
Rice cultivar (Oryza sativa L. Datian Nip) was provided by Zhejiang Academy of Agricultural Sciences.
Every 1 μL 4-(Phenylethynyl) benzoic acid mother solution in Example 1 was diluted with water to 2 mL or 500 μL to prepare 50 μM or 200 μM 4-(Phenylethynyl) benzoic acid treatment solutions. 0.05% DMSO water solution was used as the control solution for 50 μM 4-(Phenylethynyl) benzoic acid treatment solution and 0.2% DMSO water solution was used as the control solution for 200 μM 4-(Phenylethynyl) benzoic acid treatment solution respectively.
A volume of 10 ml 4-(Phenylethynyl) benzoic acid treatment solutions at various concentrations were added to 9-cm-diameter Petri dishes with two layers of filter papers. 100 seeds were placed on the moist filter paper in a Petri dish. 0.05% DMSO water solution was used as control for 50 μM 4-(Phenylethynyl) benzoic acid treatment solution. 0.2% DMSO water solution was used as control for 200 μM 4-(Phenylethynyl) benzoic acid treatment solution. There were three replicates for each treatment. Seeds were germinated under light at 28° C. The seeds that germinated between the second and the third day after imbibition were chosen and their radicle length were measured on the fifth day.

Another experiment relates to stomata of tomato leaves. Briefly: Stomata closure in abaxial epidermal strips of tomato. Format: cell-based, Solanum lycopersicum CV. Zhefen 202. The settings on record: 50 μM, 3 hours, compared to the control. How it is done: The commercial tomato seeds (Solanum lycopersicum CV. Zhefen 202) were provided by Zhejiang Academy of Agricultural Sciences.
The concentration of 4-(Phenylethynyl) benzoic acid used in this example was 50 μM. Every 1 μL of the 100 mM 4-(Phenylethynyl) benzoic acid mother solution in Example 1 was diluted to 2 mL with MES-KCl buffer (10 mM MES, 50 mM KCl, pH 6.15). 0.5% Tween-80 (V:V) was added to increase the solubility and stability of 4-(Phenylethynyl) benzoic acid. The solution was mixed evenly by stirring efficiently and it was ensured that no 4-(phenylethynyl) benzoic acid was precipitated, and finally 50 μM 4-(phenylethynyl) benzoic acid was prepared.
The control solution was the MES-KCl buffer containing 0.05% DMSO and 0.5% Tween-80.
Abaxial epidermal strips of tomato were firstly peeled from washed leaves, then immersed in MES-KCl buffer (10 mM MES, 50 mM KCl, pH 6.15) under light at 28° C. to induce stomatal opening. After 2 hours, abaxial epidermal strips of tomato were treated with the control solution (MES-KCl buffer with 0.05% DMSO and 0.5% Tween-80) and 50 μM 4-(Phenylethynyl) benzoic acid treatment solution (MES-KCl buffer with 50 μM 4-(Phenylethynyl) benzoic acid, 0.05% DMSO and 0.5% Tween-80) for 3 hours, respectively. […] Widths and lengths of stomata were measured and the aperture ratios (width:length) were calculated. […]

Each structure is given as a SMILES string.

Take `O=C(O)c1ccc(C#Cc2ccccc2)cc1` [4-(Phenylethynyl) benzoic acid]: the “germination of Arabidopsis seeds (in words)” value with Arabidopsis seeds (10 μM and 50 μM, 50 μM exhibited a stronger effect) is given as “significantly slowed down the germination”. In addition, in the experiment on Arabidopsis seeds (Arabidopsis, 1 μM), the “Germination potential/% (48 h)” value worked out at 37.50 ± 7.50 a % and the Ultimate germination rate/% worked out at 92.33 ± 0.29 a %. Also, in the experiment with Arabidopsis seeds (Arabidopsis, 10 μM), the “decrease in germination potential” value is on record as over 20%, the “Germination potential/% (48 h)” value stood at 14.53 ± 6.40 b % and the Ultimate germination rate/% came to 85.24 ± 7.41 a %. Also, in the experiment with Arabidopsis seeds (Arabidopsis, 50 μM), the “germination rate reduction ultimately” value is over 80% and the Ultimate germination rate/% was 2.30 ± 3.98 b %. Besides, in the experiment with tomato seeds (compared to the control), the “tomato seeds germination (in words)” value was “significantly inhibited the germination process and reduced the germination rate”. For the same compound, in the experiment on tomato seeds (Tomato, 48 h, control 20.83 ± 1.90), the “Germination potential/% (48 h)” value amounted to 0.00 ± 0.00 b %. Further, in the experiment on tomato seeds (Tomato, control 88.75 ± 6.25), the Ultimate germination rate/% is reported as 10.41 ± 2.88 b %. Besides, the “rice radicle elongation (in words)” value in the experiment with rice radicle (50 μM and 200 μM, relative to their controls, 200 μM significantly better than 50 μM) is “significantly inhibited rice radicle elongation”. For the same compound, the activity at 50 µM in the experiment with rice radicle (Oryza sativa, rice, 50 μM, control 0.05% DMSO, read-out: radicle length, % of control treatment) stood at 48.2%. Moreover, in the experiment on rice radicle (Oryza sativa, rice, 200 μM, control 0.2% DMSO, read-out: radicle length, % of control treatment), the activity at 200 µM was 20.3%. In the experiment with stomata of tomato leaves, the “aperture ratio (width:length) (in words)” value is recorded as “significantly reduced” and the “stomata aperture (in words)” value is “significantly reduced”.
